58 compounds from ChEMBL document CHEMBL4706556, “Unraveling the anti-influenza effect of flavonoids: Experimental validation of luteolin and its congeners as potent influenza endonuclease inhibitors” (Eur J Med Chem, 2020) can be followed below.

A short description of experiment [1]: Inhibition of biotinylated 5-(4-((Z)-3-Carboxy-3-hydroxyacryloyl)-4-(4-chlorobenzyl)piperidine-1-carbonyl)-2-((13,35-dioxo-39-((3aR,4R,6aS)-2-oxohexahydro-1H-thieno[3,4-d]imidazole-4-yl)-3,6,9,16,19,22,25,28,31-nonaoxa-12,34-diazanonatriacontyl)oxy)benzoic acid binding to Influenza A virus (A/California/07/2009(H1N1)) N-terminal GST-tagged polymerase acidic subunit N-terminal domain expressed in Escherichia coli BL21 (DE3) RIL cells measured after 120 mins by Alphascreen assay. In general terms: Alpha assays give light when donor and acceptor beads are brought close together.

Experiment [2] relates to Influenza A virus (A/California/07/2009(H1N1)). Kind of experiment: Inhibition of Influenza A virus (A/California/07/2009(H1N1)) neuraminidase at 400 uM by DNA-linked inhibitor antibody assay.
Experiment [3] has the same test system. Kind of experiment: Inhibition of endonuclease activity of Influenza A virus (A/California/07/2009(H1N1)) N-terminal GST-tagged polymerase acidic subunit N-terminal domain expressed in Escherichia coli BL21 (DE3) RIL cells at 0.01 to 100 uM using single-stranded circular DNA M13mp18 as substrate measured after 4 hrs by GelRed-staining based agarose gel electrophoresis. Conditions: dose 0.01-100 µM.

Experiment [4] has the same test system. Kind of experiment: Inhibition of endonuclease activity of Influenza A virus (A/California/07/2009(H1N1)) N-terminal GST-tagged polymerase acidic subunit N-terminal domain expressed in Escherichia coli BL21 (DE3) RIL cells using single-stranded circular DNA M13mp18 as substrate measured after 4 hrs by GelRed-staining based agarose gel electrophoresis.
Experiment [5] can be described thus: Inhibition of Influenza A virus (A/California/07/2009(H1N1)) neuraminidase by DNA-linked inhibitor antibody assay.

Counter-ions that a name gives are not always drawn. Active and inactive are the calls of the source. The calls are words filed in the database; no cut-off is given here.

As to `O=c1c(O)c(-c2ccc(O)c(O)c2)oc2cc(O)cc(O)c12` [QUERCETIN], the 50% inhibitory concentration (IC50) (usually the concentration needed to halve the response being measured) in experiment [1] amounted to 0.67 µM. The inhibition result in experiment [2] is “inactive”. Also, the inhibition result in experiment [3] was “Active”.

Turning to `O=c1cc(-c2ccc(O)c(O)c2)oc2c([C@@H]3O[C@H](CO)[C@@H](O)[C@H](O)[C@H]3O)c(O)cc(O)c12` [ORIENTIN], the IC50 in experiment [1] was found to be 0.043 µM.

In experiment [1], `O=c1cc(-c2cccc(O)c2)oc2cccc(O)c12` yielded an IC50 of over 50 µM.

As for `CCCCC(=O)C1=C(O)C(=O)c2c(O)c(O)cc(O)c2C1=O`, in experiment [4], the inhibition result is “Active”. For the same compound, the IC50 in experiment [1] is 0.29 µM. In experiment [2], the inhibition result was “inactive”.

With `COc1cc([C@@H]2Oc3c(O)cc([C@H]4Oc5cc(O)cc(O)c5C(=O)[C@@H]4O)cc3[C@H]2CO)ccc1O` [SILICRISTIN A], the IC50 in experiment [1] was over 50 µM.

In turn, `O=C1c2c(O)cc(O)cc2O[C@H](c2cc(O)c(O)c(O)c2)[C@H]1O` [AMPELOPSIN] gave a concentration for half-maximal inhibition (IC50) in experiment [1] of 22 µM.

In experiment [1], `CCn1cc(C(=O)O)c(=O)c2ccc(C)nc21` [NALIDIXIC ACID] registered a concentration for half-maximal inhibition (IC50) of over 50 µM.

In turn, `Oc1cc(O)c2c(c1)O[C@H](c1cc(O)c(O)c(O)c1)[C@H](O)C2` [EPIGALLOCATECHIN] yielded a half-maximal inhibitory concentration (IC50) in experiment [1] of 3.3 µM.

`COc1cc(OC)c2c(=O)cc(-c3cc(OC)c(OC)c(OC)c3)oc2c1` returned an IC50 in experiment [1] of 1.8 µM.

In experiment [1], `O=c1cc(-c2ccc(O)c(O)c2)oc2cc(O[C@@H]3O[C@H](CO)[C@@H](O)[C@H](O)[C@H]3O)cc(O)c12` [GALUTEOLIN] gave a half-inhibitory concentration (IC50) of 32 µM.

`CC(C)=CCC1=C(O)C(=O)c2ccccc2C1=O` [LAPACHOL]: in experiment [1], the IC50 was 19 µM.

Consider `O=c1c(O)c(-c2ccc(O)c(O)c2)[nH]c2cc(O)cc(O)c12`, for which the IC50 in experiment [1] worked out at 0.2 µM.

The compound `COc1ccc(/C=C/C(=O)/C=C(O)/C=C/c2ccc(OC)c(OC)c2)cc1OC` [DIMETHYLCURCUMIN] had an IC50 in experiment [1] of over 50 µM.

The compound `O=c1oc(-c2ccc(O)c(O)c2)cc2cccc(O)c12` [THUNBERGINOL A] showed an IC50 in experiment [1] of 1.4 µM.

The compound `O=c1c(O)c(-c2ccc(O)c(O)c2)oc2cc(O)ccc12` [FISETIN] yielded an IC50 in experiment [1] of 0.96 µM.

In the case of `O=C(/C=C(O)/C=C/c1ccc(O)cc1)/C=C/c1ccc(O)cc1`, the IC50 in experiment [1] is over 50 µM.

For the compound `Cc1cc2c(C(C)C)c(O)c(O)c(C=O)c2c(O)c1-c1c(C)cc2c(C(C)C)c(O)c(O)c(C=O)c2c1O` [GOSSYPOL], the half-maximal inhibitory concentration (IC50) in experiment [1] is 13 µM.

On to `O=C(/C=C(O)/C=C/c1ccc(O)c(O)c1)/C=C/c1ccc(O)c(O)c1`, for which the inhibition entry in experiment [4] is “Active”. Further, the half-inhibitory concentration (IC50) in experiment [1] came to 1.7 µM. Further, the inhibition entry in experiment [2] was “inactive”.

`O=c1c(-c2ccc(O)cc2)coc2cc(O)cc(O)c12` [GENISTEIN] displayed an IC50 in experiment [1] of over 50 µM.

For the compound `O=c1cc(-c2cccc(O)c2)oc2cc(O)cc(O)c12`, the IC50 in experiment [1] was over 50 µM.

As to `O=C(c1ccc(O)c(O)c1)C1(O)Oc2cc(O)cc(O)c2C1=O` (stereo not drawn), the IC50 in experiment [1] turned out to be 9.8 µM.

The compound `COc1cc(/C=C/C(=O)CC(=O)/C=C/c2ccc(O)c(OC)c2)ccc1O` [CURCUMIN] came in with an IC50 in experiment [1] of 25 µM.

For `Oc1cc(O)c2c(c1)O[C@H](c1ccc(O)c(O)c1)[C@H](O)C2` [(-)-EPICATECHIN], in experiment [1], the IC50 was over 50 µM.

Regarding `O=c1c(O)c(-c2ccc(O)cc2)oc2cc(O)cc(O)c12` [KAEMPFEROL], the IC50 in experiment [1] was 16 µM.

`O=C1c2c(O)c(=O)ccn2N([C@@H]2c3ccccc3SCc3c2ccc(F)c3F)[C@@H]2COCCN12` [BALOXAVIR] yielded a half-maximal inhibitory concentration (IC50) in experiment [1] of 0.024 µM.

On to `O=c1cc(-c2ccc(O)c(O)c2)oc2ccccc12`, for which, in experiment [1], the IC50 was 2.4 µM.

The compound `O=c1cc(-c2cccc(O)c2O)oc2cc(O)cc(O)c12` registered an IC50 in experiment [1] of 17 µM.

For the compound `COc1cc(OC)c2c(=O)c(OC)c(-c3ccc(OC)c(OC)c3)oc2c1`, the IC50 in experiment [1] was over 50 µM.

`O=C(/C=C/c1ccc(O)c(O)c1)O[C@@H]1C[C@](O)(C(=O)O)C[C@@H](O)[C@H]1O` [CHLOROGENIC ACID]: in experiment [1], the IC50 was over 50 µM. Besides, in experiment [2], the inhibition result is “inactive”.

`COc1cc([C@@H]2[C@H]3CO[C@@]4(C)C(=O)[C@@H]2C=C([C@H]2Oc5cc(O)cc(O)c5C(=O)[C@@H]2O)[C@@H]34)ccc1O` yielded an IC50 in experiment [1] of over 50 µM.

Compound `Oc1cc(O)c2c(c1)O[C@@H](c1ccc(O)c(O)c1)[C@H](O)C2` [(-)-CATECHIN] came in with an IC50 in experiment [1] of over 50 µM.

In experiment [1], `O=C(NC(O)C(=O)O)c1ccccc1` (stereo not drawn) had a half-maximal inhibitory concentration (IC50) of over 50 µM.

Regarding `O=c1cc(-c2ccc(O)c(O)c2)[nH]c2cc(O)cc(O)c12`, the inhibition entry in experiment [4] was “Active”.

`O=C1N[C@@H]2C(=C[C@H](O)[C@@H](O)[C@H]2O)c2cc3c(c(O)c21)OCO3` [NARCICLASINE] yielded an IC50 in experiment [1] of over 50 µM.

Take `COc1cc(O)c2c(=O)c(OC)c(-c3ccc(OC)c(OC)c3)oc2c1` [RETUSIN]: in experiment [1], the IC50 was over 50 µM.

On to `O=c1c(O[C@@H]2OC[C@H](O)[C@H](O)[C@H]2O)c(-c2ccc(O)c(O)c2)oc2cc(O)cc(O)c12` [GUAJAVERIN], for which the IC50 in experiment [1] came out at 17 µM.

In turn, `O=C1C[C@@H](c2ccc(O)c(O)c2)Oc2cc(O)cc(O)c21` [ERIODICTYOL] came in with an IC50 in experiment [1] of 18 µM.

Compound `O=c1cc(-c2ccc(O)c(O)c2)oc2cccc(O)c12` displayed an IC50 in experiment [1] of 1.3 µM.

`O=c1c(O)c(-c2ccc(O)cc2O)oc2cc(O)cc(O)c12` [MORIN] showed an IC50 in experiment [1] of 9 µM.

Regarding `Oc1cc(O)c2c(c1)O[C@H](c1ccc(O)c(O)c1)[C@@H](O)C2` [CIANIDANOL], the IC50 in experiment [1] was found to be 42 µM.

For the compound `O=c1cc(-c2cc(O)c(O)c(O)c2)oc2cc(O)cc(O)c12` [TRICETIN], the half-inhibitory concentration (IC50) in experiment [1] was 0.16 µM.

On to `O=C(O)/C(O)=C/C(=O)C1(Cc2ccc(Cl)cc2)CCN(Cc2ccccc2)CC1`, for which the 50% inhibitory concentration (IC50) in the experiment with Influenza A virus came out at 430 nM; in experiment [1] it was 0.026 µM.

Compound `O=c1c(O)cccc2cc(O)c(O)c(O)c12` [PURPUROGALLIN] gave an IC50 in experiment [1] of 1.5 µM.

On to `O=c1cc(-c2ccc(O)cc2)oc2c([C@@H]3O[C@H](CO)[C@@H](O)[C@H](O)[C@H]3O)c(O)cc(O)c12` [VITEXIN], for which the IC50 in experiment [1] was found to be 1.9 µM. Also, the inhibition entry in experiment [2] was “inactive”.

Compound `O=c1cc(-c2ccc(O)c(O)c2)oc2cc(O)c([C@@H]3O[C@H](CO)[C@@H](O)[C@H](O)[C@H]3O)c(O)c12` [ISOORIENTIN] showed a 50% inhibitory concentration (IC50) in experiment [1] of over 50 µM.

In the case of `O=c1c(O)c(-c2cc(O)c(O)c(O)c2)oc2cc(O)cc(O)c12` [MYRICETIN], the inhibition result in experiment [4] is “Active”. Also, the 50% inhibitory concentration (IC50) in experiment [1] was determined as 0.76 µM. The inhibition result in experiment [2] is “inactive”.

Compound `C[C@@H]1O[C@@H](Oc2c(-c3cc(O)c(O)c(O)c3)oc3cc(O)cc(O)c3c2=O)[C@H](O)[C@H](O)[C@H]1O` returned an IC50 in experiment [1] of 1.8 µM.

On to `Oc1ccc(C2CNCCc3c2cc(O)c(O)c3Cl)cc1` (stereo not drawn) [FENOLDOPAM MESYLATE], for which the IC50 in experiment [1] came out at 31 µM.

For `O=c1cc(-c2ccc(O)c(O)c2)oc2cc(O)cc(O)c12` [LUTEOLIN], the inhibition entry in experiment [4] was “Active”. This compound also returned an IC50 in experiment [1] of 0.072 µM. The inhibition entry in experiment [2] was “inactive”.

The compound `O=C1C=C(O)C(=O)c2c(O)c(O)cc(O)c21` registered a half-maximal inhibitory concentration (IC50) in experiment [1] of 0.43 µM.

Turning to `CCC(CC)O[C@@H]1C=C(C(=O)O)C[C@H](N)[C@H]1NC(C)=O` [OSELTAMIVIR CARBOXYLATE], the Ki (commonly a dissociation constant, usually derived from enzyme kinetics or from competition with a known ligand) in experiment [5] is 39 nM.

With `O=c1cc(-c2ccc(O)cc2)oc2cc(O)cc(O)c12` [APIGENIN], in experiment [1], the half-maximal inhibitory concentration (IC50) is over 50 µM.

Regarding `O=C(O[C@@H]1Cc2c(O)cc(O)cc2O[C@@H]1c1cc(O)c(O)c(O)c1)c1cc(O)c(O)c(O)c1` [EPIGALOCATECHIN GALLATE], the inhibition entry in experiment [4] was “Active”. Also, in experiment [1], the IC50 is 0.87 µM. The inhibition entry in experiment [2] is “inactive”.

Compound `COc1cc([C@H]2Oc3cc([C@H]4Oc5cc(O)cc(O)c5C(=O)[C@@H]4O)ccc3O[C@@H]2CO)ccc1O` [SILYBIN A] came in with a half-maximal inhibitory concentration (IC50) in experiment [1] of over 50 µM.

`O=c1cc(-c2ccccc2O)oc2cc(O)cc(O)c12`: in experiment [1], the concentration for half-maximal inhibition (IC50) was over 50 µM.

In the case of `O=C1c2c(O)cc(O)cc2O[C@H](c2ccc(O)c(O)c2)[C@H]1O` [(+)-TAXIFOLIN], the IC50 in experiment [1] worked out at 50 µM.

`COc1c(O)cc2oc(-c3ccc(O)c(O)c3)cc(=O)c2c1O` [EUPAFOLIN] returned a concentration for half-maximal inhibition (IC50) in experiment [1] of 0.93 µM.

For the compound `COc1ccc(-c2cc(=O)c3c(O)cc(O)cc3o2)cc1O` [DIOSMETIN], the half-maximal inhibitory concentration (IC50) in experiment [1] was over 50 µM.
